Measurements from patent US10759813B2, “Neprilysin inhibitors” (THERAVANCE BIOPHARMA R&D IP, LLC, priority 2010, dated 2020).

Molecular target: human neprilysin (EC 3.4.24.11; NEP) (Homo sapiens (Human), UniProt P08473)
Assay: In vitro enzyme inhibition assay at human NEP (fluorogenic peptide substrate)
Assay type: biochemical
Settings: pKi values at human NEP, recombinant human NEP
In short: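 pKi derived from apparent Ki fitted as v=v0/[1+(I/K′)] to Ex320/Em405 fluorescence. Compounds (pM to 10 μM) sat with recombinant human enzyme 30 min at 37 °C before 10 μM fluorogenic Mca peptide was added in HEPES pH 7.5 buffer with 10 μM ZnSO4; 20 min reaction, acetic acid quench.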

Sequence of human neprilysin (EC 3.4.24.11; NEP) (P08473 52-750): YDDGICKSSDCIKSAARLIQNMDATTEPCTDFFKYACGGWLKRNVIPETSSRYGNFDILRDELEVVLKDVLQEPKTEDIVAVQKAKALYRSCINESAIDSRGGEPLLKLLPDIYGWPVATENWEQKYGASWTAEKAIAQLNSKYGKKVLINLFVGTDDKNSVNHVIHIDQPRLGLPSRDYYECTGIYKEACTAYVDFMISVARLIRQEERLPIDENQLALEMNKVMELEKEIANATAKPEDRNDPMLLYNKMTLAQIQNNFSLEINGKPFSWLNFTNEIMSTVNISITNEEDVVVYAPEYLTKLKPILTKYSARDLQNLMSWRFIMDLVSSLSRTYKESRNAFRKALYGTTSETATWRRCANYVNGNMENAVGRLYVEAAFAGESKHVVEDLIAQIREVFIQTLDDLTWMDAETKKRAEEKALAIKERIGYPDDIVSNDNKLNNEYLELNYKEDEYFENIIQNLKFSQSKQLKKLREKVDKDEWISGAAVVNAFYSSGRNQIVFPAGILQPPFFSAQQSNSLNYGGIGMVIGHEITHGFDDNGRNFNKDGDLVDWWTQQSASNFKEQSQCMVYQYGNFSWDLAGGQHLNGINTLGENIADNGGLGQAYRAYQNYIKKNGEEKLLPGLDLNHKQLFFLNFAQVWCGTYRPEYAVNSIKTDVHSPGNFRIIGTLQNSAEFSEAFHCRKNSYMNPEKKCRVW

Row | Ki [µM] | pKi | SMILES
1 |  | ≥9.0 | O=C(N[C@H](Cc1ccc(-c2cccc(Cl)c2)cc1)C[C@@H](O)C(=O)O)c1cc(-c2cccnc2)[nH]n1 [Example 18-34, (2R,4R)-5-(3′-Chlorobiphenyl-4-yl)-2-hydroxy-4-[(5-pyridin-3-yl-1H-pyrazole-3-carbonyl)-amino]-pentanoic acid]
2 | 0.0126 to 0.1 |  | O=C(O)c1ccc(C(=O)N[C@H](Cc2ccc(-c3ccccc3)cc2)CC(O)C(=O)O)nn1 (stereo partly drawn) [Example 13-3, 6-((R)-1-Biphenyl-4-ylmethyl-3-carboxy-3-hydroxypropylcarbamoyl)-pyridazine-3-carboxylic acid]
3 | 0.00126 to 0.01 |  | O=C(N[C@H](Cc1ccc(-c2ccccc2)cc1)C[C@@H](O)C(=O)O)c1nc(-c2ccccc2Cl)no1 [Example 12-26, (2R,4R)-5-Biphenyl-4-yl-4-{[3-(2-chlorophenyl)-[1,2,4]oxadiazole-5-carbonyl]-amino}-2-hydroxy-pentanoic acid]
4 | 0.0126 to 0.1 |  | Cc1nc2ccc(C(=O)N[C@H](Cc3ccc(-c4ccccc4)cc3)CC(O)C(=O)O)cc2o1 (stereo partly drawn) [Example 11-8, (R)-5-Biphenyl-4-yl-2-hydroxy-4-[(2-methyl-benzooxazole-6-carbonyl)-amino]-pentanoic acid]
5 | 0.00126 to 0.01 |  | O=C(N[C@H](Cc1ccc(-c2ccccc2)cc1)C[C@@H](O)C(=O)O)c1cc(-c2ccncc2)[nH]n1 [Example 15-20, (2R,4R)-5-Biphenyl-4-yl-2-hydroxy-4-[(5-pyridin-4-yl-1H-pyrazole-3-carbonyl)-amino]-pentanoic acid]
6 |  | ≥9.0 | COc1ccccc1-c1cc(C(=O)N[C@H](Cc2ccc(-c3ccccc3)cc2)C[C@@H](O)C(=O)O)[nH]n1 [Example 15-79, (2R,4R)-5-Biphenyl-4-yl-2-hydroxy-4-{[5-(2-methoxy-phenyl)-2H-pyrazole-3-carbonyl]-amino}-pentanoic acid]

The remaining lines, values behind:

Row | SMILES | Ki [µM] | pKi
7 | O=C(N[C@H](Cc1ccc(-c2ccccc2)cc1)CC(O)C(=O)O)c1cc(C(=O)O)n(Cc2ccc(F)c(Cl)c2)n1 (stereo partly drawn) [Example 15-14, 5-((R)-1-Biphenyl-4-ylmethyl-3-carboxy-3-hydroxy-propylcarbamoyl)-2-(3-chloro-4-fluorobenzyl)-2H-pyrazole-3-carboxylic acid] | 0.00126 to 0.01 | 
8 | COc1cc(C(=O)N[C@H](Cc2ccc(-c3cc(Cl)ccc3F)cc2)C[C@@H](O)C(=O)O)on1 [Example 19-19, (2R,4R)-5-(5′-Chloro-2′-fluoro-biphenyl-4-yl)-2-hydroxy-4-[(3-methoxy-isoxazole-5-carbonyl)-amino]-pentanoic acid] |  | ≥9.0
9 | O=C(N[C@H](Cc1ccc(-c2cccc(Cl)c2)cc1Cl)C[C@@H](O)C(=O)O)c1cnn[nH]1 [Example 21-1, (2R,4R)-5-(3,3′-Dichlorobiphenyl-4-yl)-2-hydroxy-4-[(3H-[1,2,3]triazole-4-carbonyl)-amino]-pentanoic acid] |  | ≥9.0
10 | COc1ccccc1C(=O)Nc1nc(C(=O)N[C@H](Cc2ccc(-c3ccccc3)cc2)C[C@@H](O)C(=O)O)cs1 [Example 12-25, (2R,4R)-5-Biphenyl-4-yl-2-hydroxy-4-{[2-(2-methoxy-benzoylamino)-thiazole-4-carbonyl]-amino}-pentanoic acid] | 0.0126 to 0.1 | 
11 | O=C(N[C@H](Cc1ccc(-c2ccccc2)cc1)CC(O)C(=O)O)c1cc(C(=O)N2CCC(O)C2)n[nH]1 (stereo partly drawn) [Example 15-42, (R)-5-Biphenyl-4-yl-2-hydroxy-4-{[5-(3-hydroxypyrrolidine-1-carbonyl)-2H-pyrazole-3-carbonyl]-amino}-pentanoic acid] | ≤ 0.001 | 
12 | CC(=O)c1cc(C(=O)N[C@H](Cc2ccc(-c3ccccc3)cc2Cl)C[C@@H](O)C(=O)O)[nH]n1 [Example 20-7, (2R,4R)-4-[(5-Acetyl-2H-pyrazole-3-carbonyl)-amino]-5-(3-chloro-biphenyl-4-yl)-2-hydroxy-pentanoic acid] |  | ≥9.0
